≈ marks a conversion by molar mass, not a printed value. Calls of active or inactive are those of the source. No cut-off for these calls is given here.
What was measured:
Escherichia coli [1] = assay: Inhibition of Metallo-beta-lactamase VIM-2 in Escherichia coli clinical isolate assessed as fold reduction in meropenem MIC at 128 ug/ml; conditions: dose 128.0 µg/ml
Klebsiella pneumoniae [2] = assay: Antibacterial activity against beta-lactamase IMP-28 producing Klebsiella pneumoniae clinical isolate measured upto 128 ug/ml; type: functional, organism-based
Klebsiella pneumoniae [3] = assay: Substrate activity at Klebsiella pneumoniae beta-lactamase IMP-28 assessed as compound hydrolysis by measuring Kcat by Michaelis-Menten analysis
Enterobacter cloacae [4] = assay: Inhibition of Metallo-beta-lactamase IMP-1 in Enterobacter cloacae clinical isolate assessed as MIC for meropenem antibacterial activity at 128 ug/ml (Rvb =16 ug/ml); conditions: dose 128.0 µg/ml
Escherichia coli [5] = assay: Inhibition of Metallo-beta-lactamase VIM-2 in Escherichia coli clinical isolate assessed as fold reduction in meropenem MIC at 64 ug/ml; conditions: dose 64.0 µg/ml
Klebsiella pneumoniae [6] = assay: Inhibition of Metallo-beta-lactamase IMP-28 in Klebsiella pneumoniae clinical isolate assessed as MIC for meropenem antibacterial activity at 32 ug/ml (reference value: 4 ug/ml); conditions: dose 32.0 µg/ml
Klebsiella pneumoniae [7] = assay: Inhibition of Metallo-beta-lactamase IMP-28 in Klebsiella pneumoniae clinical isolate assessed as fold reduction in meropenem MIC at 64 ug/ml; conditions: dose 64.0 µg/ml
Escherichia coli [8] = assay: Inhibition of Metallo-beta-lactamase VIM-2 in Escherichia coli clinical isolate assessed as MIC for meropenem antibacterial activity at 64 ug/ml (reference value: 8 ug/ml); conditions: dose 64.0 µg/ml
Escherichia coli [9] = assay: Inhibition of Metallo-beta-lactamase VIM-2 in Escherichia coli clinical isolate assessed as MIC for meropenem antibacterial activity at 32 ug/ml (reference value: 8 ug/ml); conditions: dose 32.0 µg/ml
Enterobacter cloacae [10] = assay: Inhibition of Metallo-beta-lactamase IMP-1 in Enterobacter cloacae clinical isolate assessed as fold reduction in meropenem MIC at 32 ug/ml; conditions: dose 32.0 µg/ml
Escherichia coli [11] = assay: Inhibition of Metallo-beta-lactamase NDM-1 in Escherichia coli clinical isolate assessed as MIC for meropenem antibacterial activity at 64 ug/ml (reference value: 64 ug/ml); conditions: dose 64.0 µg/ml
Escherichia coli [12] = assay: Inhibition of Metallo-beta-lactamase NDM-1 in Escherichia coli clinical isolate assessed as MIC for meropenem antibacterial activity at 128 ug/ml (reference value: 64 ug/ml); conditions: dose 128.0 µg/ml
Escherichia coli [13] = assay: Inhibition of Metallo-beta-lactamase NDM-1 in Escherichia coli clinical isolate assessed as fold reduction in meropenem MIC at 64 ug/ml; conditions: dose 64.0 µg/ml
Escherichia coli [14] = assay: Antibacterial activity against beta-lactamase VIM2 producing Escherichia coli clinical isolate measured upto 128 ug/ml; type: functional, organism-based
Escherichia coli [15] = assay: Inhibition of Metallo-beta-lactamase NDM-1 in Escherichia coli clinical isolate assessed as fold reduction in meropenem MIC at 128 ug/ml; conditions: dose 128.0 µg/ml
Escherichia coli [16] = assay: Antibacterial activity against beta-lactamase NDM1 producing Escherichia coli clinical isolate measured upto 128 ug/ml; type: functional, organism-based
Klebsiella pneumoniae [17] = assay: Inhibition of Metallo-beta-lactamase IMP-28 in Klebsiella pneumoniae clinical isolate assessed as MIC for meropenem antibacterial activity at 64 ug/ml (reference value: 4 ug/ml); conditions: dose 64.0 µg/ml
Escherichia coli [18] = assay: Inhibition of Metallo-beta-lactamase VIM-2 in Escherichia coli clinical isolate assessed as fold reduction in meropenem MIC at 32 ug/ml; conditions: dose 32.0 µg/ml
Enterobacter cloacae [19] = assay: Inhibition of Metallo-beta-lactamase IMP-1 in Enterobacter cloacae clinical isolate assessed as MIC for meropenem antibacterial activity at 32 ug/ml (Rvb =16 ug/ml); conditions: dose 32.0 µg/ml
Klebsiella pneumoniae [20] = assay: Substrate activity at Klebsiella pneumoniae beta-lactamase IMP-28 assessed as compound hydrolysis by measuring Kcat/Km by Michaelis-Menten analysis
Klebsiella pneumoniae [21] = assay: Inhibition of Metallo-beta-lactamase IMP-28 in Klebsiella pneumoniae clinical isolate assessed as MIC for meropenem antibacterial activity at 128 ug/ml (reference value: 4 ug/ml); conditions: dose 128.0 µg/ml
Enterobacter cloacae [22] = assay: Inhibition of Metallo-beta-lactamase IMP-1 in Enterobacter cloacae clinical isolate assessed as fold reduction in meropenem MIC at 128 ug/ml; conditions: dose 128.0 µg/ml
[23] = Inhibition of Klebsiella pneumoniae beta-lactamase IMP-28 using nitrocefin chromogenic substrate measured after 15 to 60 min at 25 degC by microplate reader
Enterobacter cloacae [24] = assay: Antibacterial activity against beta-lactamase IMP1 producing Enterobacter cloacae clinical isolate measured upto 128 ug/ml; type: functional, organism-based
Klebsiella pneumoniae [25] = assay: Substrate activity at Klebsiella pneumoniae beta-lactamase IMP-28 assessed as compound hydrolysis by measuring Km by Michaelis-Menten analysis
Enterobacter cloacae [26] = assay: Inhibition of Metallo-beta-lactamase IMP-1 in Enterobacter cloacae clinical isolate assessed as fold reduction in meropenem MIC at 64 ug/ml; conditions: dose 64.0 µg/ml
Klebsiella pneumoniae [27] = assay: Inhibition of Metallo-beta-lactamase IMP-28 in Klebsiella pneumoniae clinical isolate assessed as fold reduction in meropenem MIC at 32 ug/ml; conditions: dose 32.0 µg/ml
Escherichia coli [28] = assay: Inhibition of Metallo-beta-lactamase NDM-1 in Escherichia coli clinical isolate assessed as MIC for meropenem antibacterial activity at 32 ug/ml (reference value: 64 ug/ml); conditions: dose 32.0 µg/ml
Klebsiella pneumoniae [29] = assay: Inhibition of Metallo-beta-lactamase IMP-28 in Klebsiella pneumoniae clinical isolate assessed as fold reduction in meropenem MIC at 128 ug/ml; conditions: dose 128.0 µg/ml
[30] = Inhibition of Escherichia coli beta-lactamase VIM-2 using nitrocefin chromogenic substrate measured after 15 to 60 min at 25 degC by microplate reader
[31] = Inhibition of Enterobacter cloacae IMP-1 using nitrocefin chromogenic substrate measured after 15 to 60 min at 25 degC by microplate reader
Escherichia coli [32] = assay: Inhibition of Metallo-beta-lactamase NDM-1 in Escherichia coli clinical isolate assessed as fold reduction in meropenem MIC at 32 ug/ml; conditions: dose 32.0 µg/ml
Enterobacter cloacae [33] = assay: Inhibition of Metallo-beta-lactamase IMP-1 in Enterobacter cloacae clinical isolate assessed as MIC for meropenem antibacterial activity at 64 ug/ml (Rvb =16 ug/ml); conditions: dose 64.0 µg/ml
Escherichia coli [34] = assay: Inhibition of Metallo-beta-lactamase VIM-2 in Escherichia coli clinical isolate assessed as MIC for meropenem antibacterial activity at 128 ug/ml (reference value: 8 ug/ml); conditions: dose 128.0 µg/ml
Enterobacter cloacae [35] = assay: Inhibition of Enterobacter cloacae Metallo-beta-lactamase IMP-1
Klebsiella pneumoniae [36] = assay: Inhibition of Klebsiella pneumoniae beta Metallo-beta-lactamase IMP-28
[37] = Binding affinity to Zinc incubated for 2 hrs measured by isothermal titration calorimetric assay
Escherichia coli [38] = assay: Inhibition of Metallo-beta-lactamase NDM-1 in Escherichia coli clinical isolate assessed as MIC for meropenem antibacterial activity at 128 ug/ml (reference value: 32 ug/ml); conditions: dose 128.0 µg/ml
Escherichia coli [39] = assay: Inhibition of Metallo-beta-lactamase NDM-1 in Escherichia coli clinical isolate assessed as MIC for meropenem antibacterial activity at 32 ug/ml (reference value: 32 ug/ml); conditions: dose 32.0 µg/ml
Escherichia coli [40] = assay: Inhibition of Metallo-beta-lactamase NDM-1 in Escherichia coli clinical isolate assessed as MIC for meropenem antibacterial activity at 64 ug/ml (reference value: 32 ug/ml); conditions: dose 64.0 µg/ml
[41] = Stability of the compound in Muller hinton broth assessed compound remaining measured after 15 hrs by HPLC analysis; type: physicochemical; conditions: Mueller Hinton broth, read-out: Stability
[42] = Inhibition of Escherichia coli beta-lactamase NDM-1 using nitrocefin chromogenic substrate measured after 15 to 60 min at 25 degC by microplate reader
[43] = Stability of the compound assessed as Klebsiella pneumoniae beta-lactamase IMP-28-mediated degradation by measuring appearance of vinyl protons release measured after 120 mins by NMR spectra; type: ADME; conditions: 2 h

Compound	fold change (FC) (Escherichia coli [1])	Activity (Klebsiella pneumoniae [2])	MIC (Enterobacter cloacae [4]) [µg/mL]	fold change (FC) (Escherichia coli [5])	MIC (Klebsiella pneumoniae [6]) [µg/mL]	fold change (FC) (Klebsiella pneumoniae [7])	MIC (Escherichia coli [8]) [µg/mL]	MIC (Escherichia coli [9]) [µg/mL]	fold change (FC) (Enterobacter cloacae [10])	fold change (FC) (Escherichia coli [13])	Activity (Escherichia coli [14])	fold change (FC) (Escherichia coli [15])	Activity (Escherichia coli [16])	MIC (Klebsiella pneumoniae [17]) [µg/mL]	fold change (FC) (Escherichia coli [18])	MIC (Enterobacter cloacae [19]) [µg/mL]	MIC (Klebsiella pneumoniae [21]) [µg/mL]	fold change (FC) (Enterobacter cloacae [22])	IC50 [23] [µM]	Activity (Enterobacter cloacae [24])	other results
O=C(Cc1ccccc1)N[C@@H]1C(=O)N2C(C(=O)O)=C(CSCCc3ccccc3)CS[C@H]12	2	inactive	8 (≈ 17.1 µM)	2	0.5 (≈ 1.07 µM)	16	4 (≈ 8.54 µM)	8 (≈ 17.1 µM)	2	4	inactive	4	inactive	0.25 (≈ 0.534 µM)	1	8 (≈ 17.1 µM)	0.25 (≈ 0.534 µM)	2	4.3	inactive	kcat (Klebsiella pneumoniae [3]): 6.12 s⁻¹; MIC (Escherichia coli [11]): 16 µg/mL (≈ 34.1 µM); MIC (Escherichia coli [12]): 16 µg/mL (≈ 34.1 µM); kcat/Km (Klebsiella pneumoniae [20]): 73000 M⁻¹ s⁻¹; Km (Klebsiella pneumoniae [25]): 83.3 µM; fold change (FC) (Enterobacter cloacae [26]): 2; fold change (FC) (Klebsiella pneumoniae [27]): 8; MIC (Escherichia coli [28]): 32 µg/mL (≈ 68.3 µM); fold change (FC) (Klebsiella pneumoniae [29]): 16; IC50 [30]: 49 µM; IC50 [31]: 2.2 µM; fold change (FC) (Escherichia coli [32]): 2; MIC (Enterobacter cloacae [33]): 8 µg/mL (≈ 17.1 µM); MIC (Escherichia coli [34]): 4 µg/mL (≈ 8.54 µM)
O=C(Cc1ccccc1)N[C@H](C(=O)O)[C@@H]1N=C(C(=O)O)C(CSC(Cc2ccccc2)C(=O)O)CS1 (stereo not given in full)	–	–	–	–	–	–	–	–	–	–	–	–	–	–	–	–	–	–	–	–	inhibition (Enterobacter cloacae [35]): Active; inhibition (Klebsiella pneumoniae [36]): Active; Kd [37]: 3.19 µM
O=C(Cc1ccccc1)N[C@@H]1C(=O)N2C(C(=O)O)=C(CSCC(=O)c3ccccc3)CS[C@H]12	2	inactive	4 (≈ 8.29 µM)	2	1 (≈ 2.07 µM)	8	4 (≈ 8.29 µM)	8 (≈ 16.6 µM)	2	4	inactive	4	inactive	0.5 (≈ 1.04 µM)	1	8 (≈ 16.6 µM)	0.25 (≈ 0.518 µM)	4	14	inactive	MIC (Escherichia coli [38]): 8 µg/mL (≈ 16.6 µM); MIC (Escherichia coli [39]): 16 µg/mL (≈ 33.2 µM); MIC (Escherichia coli [40]): 8 µg/mL (≈ 16.6 µM); remaining at 15 h [41]: > 95%; IC50 [42]: 77 µM; fold change (FC) (Enterobacter cloacae [26]): 2; fold change (FC) (Klebsiella pneumoniae [27]): 4; fold change (FC) (Klebsiella pneumoniae [29]): 16; IC50 [30]: 76 µM; IC50 [31]: 3.3 µM; fold change (FC) (Escherichia coli [32]): 2; MIC (Enterobacter cloacae [33]): 8 µg/mL (≈ 16.6 µM); MIC (Escherichia coli [34]): 4 µg/mL (≈ 8.29 µM)
O=C(Cc1ccccc1)N[C@H](C(=O)O)[C@@H]1N=C(C(=O)O)C(CSC(C(=O)O)c2ccccc2)CS1 (stereo not given in full)	–	–	–	–	–	–	–	–	–	–	–	–	–	–	–	–	–	–	–	–	inhibition (Enterobacter cloacae [35]): Active; inhibition (Klebsiella pneumoniae [36]): Active; Kd [37]: 9.67 µM
CC(=O)OCC1=C(C(=O)O)N2C(=O)[C@@H](NC(=O)Cc3ccccc3)[C@H]2SC1 [CEFALORAM]	–	–	–	–	–	–	–	–	–	–	–	–	–	–	–	–	–	–	–	–	Stability [43]: Unstable
O=C(Cc1ccccc1)N[C@@H]1C(=O)N2C(C(=O)O)=C(CS[C@@H](Cc3ccccc3)C(=O)O)CS[C@H]12	2	inactive	4 (≈ 7.8 µM)	1	1 (≈ 1.95 µM)	8	8 (≈ 15.6 µM)	8 (≈ 15.6 µM)	2	2	inactive	4	inactive	0.5 (≈ 0.975 µM)	1	8 (≈ 15.6 µM)	0.25 (≈ 0.488 µM)	4	30	inactive	kcat (Klebsiella pneumoniae [3]): 41 s⁻¹; MIC (Escherichia coli [11]): 32 µg/mL (≈ 62.4 µM); MIC (Escherichia coli [12]): 16 µg/mL (≈ 31.2 µM); remaining at 15 h [41]: > 95%; IC50 [42]: 51 µM; kcat/Km (Klebsiella pneumoniae [20]): 234000 M⁻¹ s⁻¹; Km (Klebsiella pneumoniae [25]): 175 µM; fold change (FC) (Enterobacter cloacae [26]): 2; fold change (FC) (Klebsiella pneumoniae [27]): 4; MIC (Escherichia coli [28]): 32 µg/mL (≈ 62.4 µM); fold change (FC) (Klebsiella pneumoniae [29]): 16; IC50 [30]: 19 µM; IC50 [31]: 48 µM; fold change (FC) (Escherichia coli [32]): 2; MIC (Enterobacter cloacae [33]): 8 µg/mL (≈ 15.6 µM); MIC (Escherichia coli [34]): 4 µg/mL (≈ 7.8 µM)

From ChEMBL document CHEMBL5034010, “Novel Cephalosporin Conjugates Display Potent and Selective Inhibition of Imipenemase-Type Metallo-β-Lactamases” (J Med Chem, 2021)
